Laboratory results published in paper doi:10.1101/2023.11.24.568596v1 (biorxiv, 2023).

Assays:
Conditions in all cases: binder
[1] = target: DAPK1 (Homo sapiens, UniProt P53355)
[2] = target: T1, Erk7 (Homo sapiens, UniProt Q8TD08)
T1 sequence (Q8TD08 1-544): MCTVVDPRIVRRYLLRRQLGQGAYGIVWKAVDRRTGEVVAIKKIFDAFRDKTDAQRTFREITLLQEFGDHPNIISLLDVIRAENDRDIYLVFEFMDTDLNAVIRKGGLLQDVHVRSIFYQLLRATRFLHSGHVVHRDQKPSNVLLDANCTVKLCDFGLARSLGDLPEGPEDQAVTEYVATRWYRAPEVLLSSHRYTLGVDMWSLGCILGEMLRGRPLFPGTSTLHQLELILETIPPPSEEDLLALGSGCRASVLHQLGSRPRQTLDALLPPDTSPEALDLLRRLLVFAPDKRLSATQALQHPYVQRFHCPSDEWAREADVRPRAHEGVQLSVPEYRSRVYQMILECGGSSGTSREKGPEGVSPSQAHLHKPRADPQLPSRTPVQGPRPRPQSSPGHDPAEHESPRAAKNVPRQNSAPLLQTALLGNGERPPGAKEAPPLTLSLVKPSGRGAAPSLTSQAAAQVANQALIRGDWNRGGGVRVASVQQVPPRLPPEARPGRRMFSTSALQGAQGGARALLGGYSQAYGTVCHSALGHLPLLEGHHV

[3] = target: PCTAIRE1 (Homo sapiens, UniProt Q00536)
[4] = target: T2, BMPR2 (Homo sapiens, UniProt Q13873)
T2 sequence (Q13873 1-1038): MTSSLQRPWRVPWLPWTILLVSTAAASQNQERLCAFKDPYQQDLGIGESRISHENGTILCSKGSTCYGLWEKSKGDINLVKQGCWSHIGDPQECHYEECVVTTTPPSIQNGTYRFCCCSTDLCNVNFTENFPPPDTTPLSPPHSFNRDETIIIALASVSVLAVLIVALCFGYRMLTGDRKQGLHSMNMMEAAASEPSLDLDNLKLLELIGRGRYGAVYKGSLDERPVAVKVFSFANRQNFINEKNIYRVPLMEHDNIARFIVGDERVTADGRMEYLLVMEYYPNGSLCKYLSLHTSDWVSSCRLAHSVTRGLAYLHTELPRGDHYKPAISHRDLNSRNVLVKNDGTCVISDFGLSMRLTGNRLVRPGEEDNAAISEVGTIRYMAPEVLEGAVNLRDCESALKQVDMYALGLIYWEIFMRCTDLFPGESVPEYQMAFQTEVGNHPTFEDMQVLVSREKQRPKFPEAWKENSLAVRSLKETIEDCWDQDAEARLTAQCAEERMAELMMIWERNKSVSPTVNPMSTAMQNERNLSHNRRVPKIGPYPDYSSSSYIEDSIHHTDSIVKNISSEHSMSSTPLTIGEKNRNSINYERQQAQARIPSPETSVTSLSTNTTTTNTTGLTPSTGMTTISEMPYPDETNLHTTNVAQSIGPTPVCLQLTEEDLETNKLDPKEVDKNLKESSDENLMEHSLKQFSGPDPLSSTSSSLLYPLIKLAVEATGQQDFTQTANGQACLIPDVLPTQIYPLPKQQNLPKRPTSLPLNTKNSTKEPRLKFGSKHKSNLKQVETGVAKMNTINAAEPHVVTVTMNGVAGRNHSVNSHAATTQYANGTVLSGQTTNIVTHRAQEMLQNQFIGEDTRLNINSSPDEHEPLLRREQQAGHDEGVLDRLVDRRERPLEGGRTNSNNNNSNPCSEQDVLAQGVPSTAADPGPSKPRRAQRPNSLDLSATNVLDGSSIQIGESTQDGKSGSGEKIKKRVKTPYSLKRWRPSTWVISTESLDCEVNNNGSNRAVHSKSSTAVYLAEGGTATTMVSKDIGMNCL

[5] = target: T3, MST1 (Homo sapiens, UniProt Q13043)
T3 sequence (Q13043 1-487): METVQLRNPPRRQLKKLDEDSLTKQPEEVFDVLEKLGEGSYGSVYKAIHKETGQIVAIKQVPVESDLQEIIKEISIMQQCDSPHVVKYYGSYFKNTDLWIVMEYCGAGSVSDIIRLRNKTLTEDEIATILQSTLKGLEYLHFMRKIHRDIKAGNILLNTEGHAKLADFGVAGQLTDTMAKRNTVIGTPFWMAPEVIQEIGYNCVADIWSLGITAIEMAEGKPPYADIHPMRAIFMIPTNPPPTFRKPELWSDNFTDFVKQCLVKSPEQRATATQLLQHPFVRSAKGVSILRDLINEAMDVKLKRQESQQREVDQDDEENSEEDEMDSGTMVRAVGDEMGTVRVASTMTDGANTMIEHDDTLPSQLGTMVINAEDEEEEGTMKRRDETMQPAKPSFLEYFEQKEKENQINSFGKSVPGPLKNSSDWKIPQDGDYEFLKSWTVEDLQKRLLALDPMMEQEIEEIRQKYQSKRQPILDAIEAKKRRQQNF

[6] = target: T4, DYRK2 (Homo sapiens, UniProt Q92630)
T4 sequence (Q92630 1-601): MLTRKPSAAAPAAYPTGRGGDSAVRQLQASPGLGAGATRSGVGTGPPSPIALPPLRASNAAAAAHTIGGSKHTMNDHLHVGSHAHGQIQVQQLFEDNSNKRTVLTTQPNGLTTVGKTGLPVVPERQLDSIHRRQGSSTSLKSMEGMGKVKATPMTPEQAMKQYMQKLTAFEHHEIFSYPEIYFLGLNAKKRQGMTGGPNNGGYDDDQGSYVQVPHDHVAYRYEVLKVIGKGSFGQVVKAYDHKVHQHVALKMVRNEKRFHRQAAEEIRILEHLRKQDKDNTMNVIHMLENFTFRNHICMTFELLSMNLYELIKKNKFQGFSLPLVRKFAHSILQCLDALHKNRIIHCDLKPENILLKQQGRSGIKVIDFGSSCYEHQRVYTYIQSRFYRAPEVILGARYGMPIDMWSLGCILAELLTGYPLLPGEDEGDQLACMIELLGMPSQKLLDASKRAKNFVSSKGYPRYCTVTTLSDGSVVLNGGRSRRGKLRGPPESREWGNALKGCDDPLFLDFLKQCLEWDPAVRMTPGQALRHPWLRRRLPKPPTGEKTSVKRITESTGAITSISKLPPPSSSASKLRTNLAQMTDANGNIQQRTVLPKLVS

Chain of PCTAIRE1 (Q00536 whole entry): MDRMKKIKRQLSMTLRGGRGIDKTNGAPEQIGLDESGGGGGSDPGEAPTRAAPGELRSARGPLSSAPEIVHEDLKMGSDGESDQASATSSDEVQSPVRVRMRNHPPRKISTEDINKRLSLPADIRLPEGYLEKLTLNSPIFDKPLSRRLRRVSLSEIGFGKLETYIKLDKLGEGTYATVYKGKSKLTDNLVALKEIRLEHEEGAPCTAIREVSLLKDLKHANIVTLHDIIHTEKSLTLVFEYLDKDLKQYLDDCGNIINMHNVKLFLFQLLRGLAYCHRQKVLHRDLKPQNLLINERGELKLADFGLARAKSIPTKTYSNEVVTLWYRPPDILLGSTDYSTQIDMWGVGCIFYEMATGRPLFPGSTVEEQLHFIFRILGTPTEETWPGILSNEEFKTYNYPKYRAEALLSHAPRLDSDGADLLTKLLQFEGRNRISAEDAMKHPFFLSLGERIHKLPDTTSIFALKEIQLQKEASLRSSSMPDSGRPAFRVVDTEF
Chain of DAPK1 (P53355 whole entry): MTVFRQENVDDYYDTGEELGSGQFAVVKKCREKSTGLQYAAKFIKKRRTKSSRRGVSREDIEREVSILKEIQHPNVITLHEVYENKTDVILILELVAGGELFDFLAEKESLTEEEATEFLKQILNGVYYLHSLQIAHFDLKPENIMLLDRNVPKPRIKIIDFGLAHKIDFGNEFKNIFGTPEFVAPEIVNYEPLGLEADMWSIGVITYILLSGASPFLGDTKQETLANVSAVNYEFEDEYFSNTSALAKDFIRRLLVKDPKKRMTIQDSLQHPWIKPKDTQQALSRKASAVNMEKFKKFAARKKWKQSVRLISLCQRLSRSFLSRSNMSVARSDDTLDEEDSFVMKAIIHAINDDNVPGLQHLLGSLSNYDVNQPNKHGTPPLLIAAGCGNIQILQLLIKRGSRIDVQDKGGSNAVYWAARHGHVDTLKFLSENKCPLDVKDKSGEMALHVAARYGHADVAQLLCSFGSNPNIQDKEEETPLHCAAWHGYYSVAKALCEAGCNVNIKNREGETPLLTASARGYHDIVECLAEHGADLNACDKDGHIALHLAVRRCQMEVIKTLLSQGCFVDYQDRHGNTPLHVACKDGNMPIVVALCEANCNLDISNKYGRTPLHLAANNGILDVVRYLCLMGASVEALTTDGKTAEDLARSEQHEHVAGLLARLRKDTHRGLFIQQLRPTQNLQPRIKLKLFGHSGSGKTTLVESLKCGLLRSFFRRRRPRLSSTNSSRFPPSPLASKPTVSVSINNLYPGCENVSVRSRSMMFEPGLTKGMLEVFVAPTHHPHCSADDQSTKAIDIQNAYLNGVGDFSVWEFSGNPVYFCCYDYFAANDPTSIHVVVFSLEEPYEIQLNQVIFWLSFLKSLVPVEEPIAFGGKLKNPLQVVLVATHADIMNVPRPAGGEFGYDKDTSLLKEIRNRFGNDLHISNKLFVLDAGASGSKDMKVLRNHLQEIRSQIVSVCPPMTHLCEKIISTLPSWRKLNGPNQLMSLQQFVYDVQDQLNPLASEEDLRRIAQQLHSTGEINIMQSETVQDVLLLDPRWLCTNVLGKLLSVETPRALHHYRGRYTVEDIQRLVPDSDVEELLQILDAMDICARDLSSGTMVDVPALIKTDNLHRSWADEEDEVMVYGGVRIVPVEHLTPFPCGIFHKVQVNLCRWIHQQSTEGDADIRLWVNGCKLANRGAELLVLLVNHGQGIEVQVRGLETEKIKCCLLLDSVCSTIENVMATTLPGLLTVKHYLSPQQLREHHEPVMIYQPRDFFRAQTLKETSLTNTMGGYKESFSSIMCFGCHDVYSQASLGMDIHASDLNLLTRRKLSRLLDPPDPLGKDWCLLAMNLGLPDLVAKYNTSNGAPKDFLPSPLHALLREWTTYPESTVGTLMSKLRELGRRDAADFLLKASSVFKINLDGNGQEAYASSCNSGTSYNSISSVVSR

## Cc1cccc(-c2ccc(-c3cc4cnc(NC(CO)CO)nc4n(CCCCN)c3=O)c(Cl)c2)n1 [compound 24, 8-(4-Aminobutyl)-6-(2-chloro-4-(6-methylpyridin-2-yl)phenyl)-2-((1,3-dihydroxypropan-2-yl)amino)pyrido[2,3-d]pyrimidin-7(8H)-one]
[1]
  ΔTm MR24 (24): -0.8 °C
[2]
  ΔTm MR24 (24): -0.4 °C
[3]
  ΔTm MR24 (24): 1.7 °C
[4]
  ΔTm MR24 (24): -0.1 °C
[5]
  ΔTm MR24 (24): -0.6 °C
[6]
  ΔTm MR24 (24): -0.3 °C

## Cc1cccc(-c2ccc(-c3cc4cnc(NCCCc5ccc(N)cc5)nc4n(CCCCN)c3=O)c(Cl)c2)n1 [compound 25, 8-(4-Aminobutyl)-2-((3-(4-aminophenyl)propyl)amino)-6-(2-chloro-4-(6-methylpyridin-2-yl)phenyl)pyrido[2,3-d]pyrimidin-7(8H)-one]
[1]
  ΔTm 25: -1.0 °C
[2]
  ΔTm 25: 2.9 °C
[3]
  ΔTm 25: 4.5 °C
[4]
  ΔTm 25: -0.2 °C
[5]
  ΔTm 25: -1.4 °C
[6]
  ΔTm 25: -0.6 °C

## CNc1ncc2cc(-c3ccc(-c4cccc(C)n4)cc3Cl)c(=O)n(CCC3CCNCC3)c2n1 [compound 22, 6-(2-Chloro-4-(6-methylpyridin-2-yl)phenyl)-2-(methylamino)-8-(2-(piperidin-4-yl)ethyl)pyrido[2,3-d]pyrimidin-7(8H)-one]
[1]
  ΔTm 22: -0.8 °C
[2]
  ΔTm 22: 1.5 °C
[3]
  ΔTm 22: 3.0 °C
[4]
  ΔTm 22: -0.3 °C
[5]
  ΔTm 22: 6.0 °C
[6]
  ΔTm 22: -0.4 °C

## CNc1ncc2cc(-c3ccc(-c4cccc(C)n4)cc3Cl)c(=O)n(CCCCN)c2n1 [compound 20, MRLW5]
[1]
  ΔTm MRLW5 (20): -0.8 °C
[2]
  ΔTm MRLW5 (20): 1.0 °C
[3]
  ΔTm MRLW5 (20): 2.3 °C
[4]
  ΔTm MRLW5 (20): -0.1 °C
[5]
  ΔTm MRLW5 (20): 5.6 °C
[6]
  ΔTm MRLW5 (20): -0.1 °C

## Cc1cccc(-c2ccc(-c3cc4cnc(NCCCN5CCOCC5)nc4n(CCCCN)c3=O)c(Cl)c2)n1 [compound 26, MR26]
[1]
  ΔTm MR26 (26): -0.7 °C
[2]
  ΔTm MR26 (26): -0.4 °C
[3]
  ΔTm MR26 (26): 1.8 °C
[4]
  ΔTm MR26 (26): -0.2 °C
[5]
  ΔTm MR26 (26): -0.5 °C
[6]
  ΔTm MR26 (26): -0.2 °C

## CNc1ncc2cc(-c3ccc(-c4cccc(C)n4)cc3Cl)c(=O)n(C[C@H]3CC[C@H](N)CC3)c2n1 [compound 23, 23]
[1]
  ΔTm 23: -0.4 °C
[2]
  ΔTm 23: 4.2 °C
[3]
  ΔTm 23: 4.4 °C
[4]
  ΔTm 23: -0.7 °C
[5]
  ΔTm 23: 7.9 °C
[6]
  ΔTm 23: -0.2 °C
